Data from a melting point compilation (Tetko et al.; mined from patent text by program, amines drawn as free bases though some values may be those of a salt).

Row | SMILES | melting point [°C]
1 | CCN(CC)C(=O)n1c(C(=O)C(C)(C)c2ccc(Cl)cc2)cc2cc(OC)ccc21 | 172 to 175
2 | COc1cc(F)c(C(O)C#N)cc1OC (stereo not given) | 112 to 114
3 | O=P(O)(O)CCCCCCCCCCCCCCCCCCCCCCC(F)(F)C(F)(F)C(F)(F)C(F)(F)F | 106 to 108
4 | CCOC(=O)CCc1ccc2cc(O)ccc2n1 | 126 to 128
5 | CCc1ncc(CCCO)n1C | 69 to 71
6 | COc1nc(OC)c(C(C)C)c(C(=O)c2cc(C)cc(C=O)c2)n1 | 111 to 113
7 | COc1ccc(C(=Cc2ccncc2)c2ccncc2)cc1OC1CCCC1 | 136 to 138
8 | CC(C)(C)c1cc(CCc2ccccc2NC(=O)N2CCN(C(=O)c3cccnc3)CC2)cc(C(C)(C)C)c1O | 171 to 172
9 | CC(C)(C)OC(=O)Nc1ccccc1NC(=O)c1ccc(C(=O)Nc2cccc(Nc3nc(-c4cccnc4)cs3)c2)s1 | 198
10 | O=C(Nc1cnc2c(c1)nc1n2CCC1)c1cc2cc(F)ccc2n1Cc1cccc(F)c1 | 227 to 229
11 | CCCCC(=O)c1c(-c2ccc3c(Cl)c(OCc4nnn[nH]4)ccc3c2)oc2ccccc12 | 168 to 169
12 | CSc1ccc(C(=O)c2ccc(F)cc2)[nH]1 | 112 to 113
13 | CCN(C)C(=O)c1cnn(-c2ccc(Cl)cc2)c1-c1ccc(OC)c(OC)c1 | 110
14 | CCCCC(Cc1ccc(OCCCNC(=O)c2ccc(-c3ccccn3)cc2)cc1)C(=O)O (stereo not given) | 151 to 152
15 | C=CCCC(C(=O)O)(C(=O)O)C(F)F | 80 to 81
16 | CCc1c(C)oc(-c2ccc(S(C)(=O)=O)cc2)c(Oc2ccc(F)cc2F)c1=O | 173
17 | Cc1c(C)c2c(c(C)c1O)CCC(C)(C(=O)Nc1ccccc1)O2 (stereo not given) | 107 to 109
18 | CCOC(=O)COc1cc(F)c(-c2nn(C)c(C(F)(F)F)c2Cl)cc1[N+](=O)[O-] | 95 to 96
19 | CC(=O)OCCOc1ccc(C=Cc2ccc(S(C)(=O)=O)cc2)cc1 | 175 to 177
20 | NC(=O)c1cc(COc2nnc(Nc3ccc(Cl)cc3)c3ccsc23)ccn1 | 233
21 | CC(NC(=O)C(=O)c1c[nH]c2ccc(Br)cc12)c1c[nH]c2ccc(Br)cc12 (stereo not given) | 141
22 | O=C(Nc1cccnn1)N1CCN(c2nccc(-c3cccc(F)c3)n2)CC1 | 238 to 239
23 | CCOC(=O)C1=C(COC)NC(COC)=C(C(=O)OCC)C1c1ccc(SC)cc1 | 136 to 138
24 | CCc1nc2c(cnn2CC)c(NC2CCOCC2)c1CNC(=O)c1cc(C)cc(C(=O)NCc2ccc(C)c(Br)c2)c1 | 117 to 119

Row | SMILES | melting point [°C]
25 | O=C(Cn1cc(-c2ccccc2)cc(NC(=O)OCc2ccccc2)c1=O)NC(Cc1ccccc1)C(=O)C(F)(F)F (stereo not given) | 147 to 151
26 | CCC1OCC(O)CO1 (stereo not given) | 62 to 68.5
27 | CC(=O)c1ccc(Cl)c(C)c1F | 57
28 | Nc1c(NCCCOc2cccc(C=O)c2)c(=O)c1=O | 203 to 206
29 | CN(C)c1ccccc1CS(=O)c1nc2c(n1-c1ccccn1)CCC2 (stereo not given) | 140 to 141
30 | CCCCCCCCCCCCCCCCCCC1CC(=O)N(c2ccc([N+](=O)[O-])cc2O)C1=O (stereo not given) | 115 to 120
31 | O=c1ccn(CC(O)CO)c(C(OC2CCCCO2)c2ccccc2)c1OCc1ccccc1 (stereo not given) | 190 to 206
32 | CCC(=O)NCCOc1ccccc1 | 61.5 to 64
33 | Cc1sccc1C1(c2cccc(-c3cncnc3)c2)N=C(N)N(C)C1=O (stereo not given) | 154 to 159
34 | O=C(Nc1ccccc1)O[C@@H]1CN=C(c2ccc([N+](=O)[O-])cc2)O[C@H]1c1ccccc1 (racemic) | 148
35 | Brc1ccc(N2CCN(Cc3c[nH]c4ncccc34)CC2)cc1 | 234 to 238
36 | CN(C)S(=O)(=O)OCCOc1ccc(Cl)cc1 | 54 to 57
37 | O=C(Nc1nc2ccccc2[nH]1)c1ccc(Cl)c(Cl)c1 | 251 to 252
38 | Cc1cc(C)c2cccc(OCc3c(Cl)ccc(S(=O)(=O)N4CCC[C@H]4C(=O)N4CCN(C(=O)c5ccc(C=NN)cn5)CC4)c3Cl)c2n1 | 150 to 155
39 | FC(F)(F)c1cc(OCc2ccc(-c3ccccc3-c3nnn[nH]3)cc2)c2c(n1)CCCC2 | 218 to 219
40 | C=C(C)Cc1c(C)c(NC(C)=O)cc(C)c1O | 183 to 185
41 | Oc1ccc(-n2nc3c(c2Cl)CCCC3)c(F)c1 | 214 to 216
42 | Fc1nccn1C(c1ccccc1)(c1ccccc1)c1ccccc1 | 182 to 185
43 | CC(=O)N(C)c1cccc2c1nc(-c1c(F)cccc1F)n2Cc1c(F)cccc1F | 155 to 156
44 | O=C(COc1ncccn1)NC1CCN(Cc2ccc(Cl)c(Cl)c2)CC1 | 120 to 122
45 | Cc1ccc(C)c(OCc2ccccc2C(=O)c2ccon2)c1 | 90.5 to 92
46 | CCOCc1nc2c(N)nc(C)cc2n1CCCCNC(=O)C(C)C | 170 to 172
47 | CCCC1=NN(c2ccc(C(=O)O)cc2)C(=O)C1=CNc1ccccc1CC | 254
48 | CC(C)(C)OC(=O)Nc1cccc(C(=O)NCC(=O)OCc2ccccc2)c1 | 171 to 173

Row | SMILES | melting point [°C]
49 | Cc1ccc(S(=O)(=O)OCC2COc3ccc4[nH]c(C(F)(F)F)nc4c3O2)cc1 (stereo not given) | 114 to 116
50 | CCCCc1nc(C(=O)c2ccccc2)c(C#N)[nH]1 | 121 to 122
51 | NNC1=NOCc2ccc(Cl)cc21 | 148 to 149
52 | O=C(NC1CCOCC1)c1ccc(-c2cc(-c3c[nH]nc3-c3ccccn3)ccn2)cc1 | 248
53 | CCOC(=O)N1CCc2[nH]cc3c(=O)n(-c4ccc(Cl)cc4)nc-3c2C1 | 357 to 359
54 | COc1ccc(CC(=O)O)cc1C1CCCCC1 | 112 to 114
55 | Cc1ncncc1C(=O)Nc1cc(F)c(-n2nc(C(F)(F)F)cc2C2CC2)c(F)c1 | 147 to 150
56 | COC(=O)CCCCc1cc2cc(Cl)ccc2n1S(=O)(=O)c1ccccc1 | 95 to 98
57 | CCc1cnc(N2CCN(C(=O)c3cccc(Nc4ncnc5ccccc45)c3)CC2)nc1 | 146 to 147
58 | CC1CCC2(OC1)OC1CC3C4CC(=O)C5CCCCC5(C)C4CCC3(C)C1C2C (stereo not given) | 210 to 212
59 | CC(=O)NC[C@H]1CN(c2ccc(N3CCC(=C(C#N)c4ccccn4)CC3)c(F)c2)C(=O)O1 | 265 to 267
60 | CS(=O)(=O)Nc1ccc2c(c1)c(C(=O)C(=O)NC1=CC(=O)OC1)cn2Cc1ccc(C(F)(F)F)cc1 | 267 to 269
61 | O=c1[nH]c2cccc(OCCN3CCc4ccccc4C3)c2[nH]1 | 173 to 174
62 | CCc1cccc2nc(C(=O)OC)c(C(=O)OC)c(O)c12 | 111 to 114
63 | COc1ccc(C(C)C)cc1-c1cc(C(=O)NC2CCN(C(=O)OC(C)(C)C)C2)c(OCc2ccccc2)cc1OCc1ccccc1 (stereo not given) | 151 to 154
64 | Cc1cc(-c2cc(C(F)(F)F)n3ncc(-c4nc(-c5cnc(N)nc5)no4)c3n2)ccc1Cl | 272
65 | CC(C)Cc1csc(NC(=O)OC(C)(C)C)c1C(=O)O | 154 to 155
66 | NCc1nc(-c2ncn3c2[C@@H]2CCN2C(=O)c2c(Cl)cccc2-3)no1 | 212 to 214
67 | COCCOC(=O)C1=C(C)NC(C)=C(C(=O)OCCN2CCN(C(c3ccccc3)c3ccccc3)CC2)C1c1cccc([N+](=O)[O-])c1 (stereo not given) | 62 to 66
68 | NS(=O)(=O)c1ccc(-n2nc(C(F)(F)F)cc2-c2ccc(-c3ccco3)cc2)c(Cl)c1 | 190
69 | COc1ccc(CNc2nc(C)c(-c3ccncc3)s2)cc1OC | 134 to 135
70 | CC(=O)OC1(C(C)=O)CCC2C3C=C(Cl)C4=CC(=O)OC(O)C4(C)C3CCC21C (stereo not given) | 276 to 278
71 | CCN(CC)C(=O)Nc1cc(C(C)(C)C)on1 | 122 to 124
72 | Cc1c(C(=O)Nc2ccc(N3CCC(N4CCOCC4)CC3)c(C#N)c2)cnn1-c1cccc(Cl)c1 | 210

Row | SMILES | melting point [°C]
73 | C=C(C(=O)N1CCOCC1)c1cccc(-c2cc3c(cc2C)C(C)(C)CCC3(C)C)c1 | 158 to 159
74 | CC(=O)N1CCC(NC(=O)Nc2cccc(C(F)(F)F)c2)CC1 | 212 to 217
75 | CCNc1c(C(=O)OCC)c(C)nc2nccnc12 | 72 to 74
76 | CCN1CCCC1CNC(=O)c1sc(C=O)c(C)c1OC (stereo not given) | 122 to 123
77 | CC(C)(Oc1ccc(C(=O)NCc2ccc(Cl)cc2)cc1)C(=O)O | 180
78 | Clc1ccc(-c2coc3ccc(Br)cc23)c(Cl)c1 | 116 to 117
79 | CCCNc1ccc2oc([N+](=O)[O-])c(-c3ccccc3)c2c1 | 158 to 160
80 | O=C(Nc1cccc2c1C(=O)c1c-2n[nH]c1-c1ccc(C(=O)[C@]23CN[C@H](CN2)C3)s1)NN1CCOCC1 | > 300
81 | COc1cc(CN[C@@H](CC(C)C)C(=O)N2CCN(C(c3ccc(F)cc3)c3ccc(F)cc3)CC2)cc(OC)c1OC | 58 to 62
82 | CC(C)(C)OC(=O)N(C(=O)OC(C)(C)C)c1c(C#N)csc1C(=O)O | 159 to 160
83 | CC1C=C2CCCCCCCCCC=C2C1 (stereo not given) | 98 to 103
84 | O=C1c2c(-c3ccccc3)cc(CO)nc2OCCN1Cc1cc(C(F)(F)F)cc(C(F)(F)F)c1 | 199 to 201
85 | CN(C)S(=O)(=O)N1CCN(c2ccnc(CO)n2)CC1 | 148 to 149
86 | OC1(c2ccc(Cl)cc2)CCN(CCCc2noc3cc(F)ccc23)CC1 | 142 to 145
87 | O=C1CCN(CCCn2c(=O)[nH]c3ccccc32)CC1 | 134 to 136
88 | CC(C)(C)OC(=O)C(C)(C)ON=C1C=CC=CC1CC(=O)O (stereo not given) | 102 to 105
89 | CNC(=O)c1cc(F)cc(Cl)c1Oc1cccc(OC)c1C | 127 to 128
90 | CC(=O)C(=Cc1ccc(Cl)c([N+](=O)[O-])c1)C(C)=O | 110 to 111
91 | Cc1ccc(C(=O)c2ccccc2Cl)n1N | 84 to 85
92 | COc1cc(OC)c(-c2cc3ccccc3n2C)cc1C=CC(=O)c1ccc(C(=O)O)cc1 | 157 to 160
93 | CCCCCCCCCCCCCCCCCCOc1cc(C(=O)N(CC(=O)O)CC(=O)O)cc([N+](=O)[O-])c1 | 110 to 112
94 | Brc1ccc(C2CC(n3cncn3)c3ccccc3N2)cc1 (stereo not given) | 158 to 160
95 | Cc1noc(NS(=O)(=O)c2ccccc2-c2ccsc2)c1C | 147 to 148
